Experiments:
[1] = Single-dose crossover pharmacokinetics of oseltamivir and oseltamivir carboxylate in plasma (HPLC-MS/MS, non-compartmental analysis); format: in vivo, healthy Chinese subjects; settings: fed vs fasting; plasma analyte
Source text: This study was developed in healthy subjects in the fasting or postprandial state, using a single-dose, randomized, open-label, two-period, two-sequence, self-crossover design. It authorized by the Ethics Committee of the First Affiliated Hospital of Bengbu Medical College. The ethical approval process complies with the requirements of Good Clinical Practice (GCP), the Declaration of Helsinki and relevant Chinese laws and regulations. Registration number CTR20200764 at 26-Apr-2020. http://www.chinadrugtrials.org.cn/clinicaltrials.searchlist.dhtml.
According to "the Guiding Principles for Human Bioavailability and Bioequivalence test of Pharmaceutical Preparations (2015 Edition)", "the Guiding Principles for Human Bioequivalence Research of Chemical Drug Imitations with Pharmacokinetic Parameters as the End Point Evaluation Indicators", and recommended dose in Tamiflu® instructions, the single oral dose of 75 mg/12.5 mL was determined for the reference preparation and test preparation of this study. […] Assuming one-sided α = 0.05, β = 0.2, %CV of 31.87%, a mean ratio F between the test product and reference product of 1, and the bioequivalence interval of 80.00–125.00%, the sample size of the two-period, crossover study design is 35 cases, calculated by PASS software. […] The quantitative linear range of oseltamivir is 0.500–200 ng/mL, and the LLOQ is 0.500 ng/mL. The quantitative linear range of oseltamivir carboxylate is 4.00–800 ng/mL, and the LLOQ is 4.00 ng/mL.
Pharmacokinetic parameters of oseltamivir and oseltamivir carboxylate were calculated using Phoenix WinNonlin (Pharsight Corporation, 8.3.1) based on individual blood concentrations and sampling time (calculated by actual sampling time) using non-compartmental analysis (NCA), Cmax, Tmax, AUC0-t, AUC0-∞, t1/2, λz, as well as %AUCex for oseltamivir and oseltamivir carboxylate were included. […]

[2] = design: method as in earlier work; settings: used for sample size estimation; cited from earlier work
[3] = test system: influenza pneumonia; design: method as in PMID 33718494; settings: early treatment compared with late treatment; cited from earlier work
[4] = design: method as in doi:10.1002/14651858.CD008965.pub4, PMID 25640810, PMID 12908848; settings: cited from earlier work

For `CCOC(=O)C1=C[C@@H](OC(CC)CC)[C@H](NC(C)=O)[C@@H](N)C1` [oseltamivir], the “change of AUC0-∞ after feeding” value [1] is given as “increases”, the “intra-individual coefficient of variation (%CV) of AUC” value [2] is given as 7.24–7.35% and the “intra-individual coefficient of variation (%CV) of Cmax” value [2] is given as 21.16–31.87%. For the same compound, the “reduction in ICU mortality” value [3] was 33%.
In the case of `CCOC(=O)C1=C[C@@H](OC(CC)CC)[C@H](NC(C)=O)[C@@H](N)C1` [oseltamivir phosphate], the “incidence of other side effects (conjunctivitis, rhinorrhagia, allergy, cardiac arrhythmias, gastrointestinal bleeding, neuropsychiatric events etc.)” value [4] is listed as less than 1%, the incidence of nausea ([4]; most common side effects) is listed as 10% and the incidence of vomiting ([4]; most common side effects) is listed as 2–15%.
For `CCC(CC)O[C@@H]1C=C(C(=O)O)C[C@H](N)[C@H]1NC(C)=O` [oseltamivir carboxylate], the “Cmax, AUC0-t under fed conditions” value [1] was “lowered” and the “change of AUC0-∞ after feeding” value [1] was “decreases”.
